# Measurements: patent publication EP4471049A1 (Zealand Pharma A/S, priority 2023, dated 2024)
# Read-outs that look alike come from different tables or passages of the source. *1 amine or outer side, *2 acyl side, *3 side chain or, on linkers, in order; H or OH if unused. Bridges are numbered along the chain shown (N, C = ends). Primed or numbered codes have the meaning given here. [ ]: non-standard residue; d: D form. 4‑Aminomethyl‑phenylacetyl = 4-aminomethyl-phenylacetyl unit, its amine closes the lactam, O=C(Cc1ccc(CN[*:1])cc1)[*:2]; Q(pyrrolidin)″ = (2S)-2-amino-5-oxo-5-pyrrolidin-1-yl-pentanoic acid, O=C(CC[C@H](N[*:1])C(=O)[*:2])N1CCCC1; αMeAla(3-pyridyl) = C[C@](N)(Cc1cccnc1)C(=O)O; 2Nal = N[C@@H](Cc1ccc2ccccc2c1)C(=O)O; AEF = NCCOc1ccc(C[C@H](N)C(=O)O)cc1; 3Pal = N[C@@H](Cc1cccnc1)C(=O)O; αMeL = CC(C)C[C@](C)(N)C(=O)O; Iso‑Dab = not defined here; Dab = NCC[C@H](N)C(=O)O
# T1: human IL-23R endogenously expressed on DB cells (human, UniProt Q5VWK5 24-629)
# T1 sequence (looked up): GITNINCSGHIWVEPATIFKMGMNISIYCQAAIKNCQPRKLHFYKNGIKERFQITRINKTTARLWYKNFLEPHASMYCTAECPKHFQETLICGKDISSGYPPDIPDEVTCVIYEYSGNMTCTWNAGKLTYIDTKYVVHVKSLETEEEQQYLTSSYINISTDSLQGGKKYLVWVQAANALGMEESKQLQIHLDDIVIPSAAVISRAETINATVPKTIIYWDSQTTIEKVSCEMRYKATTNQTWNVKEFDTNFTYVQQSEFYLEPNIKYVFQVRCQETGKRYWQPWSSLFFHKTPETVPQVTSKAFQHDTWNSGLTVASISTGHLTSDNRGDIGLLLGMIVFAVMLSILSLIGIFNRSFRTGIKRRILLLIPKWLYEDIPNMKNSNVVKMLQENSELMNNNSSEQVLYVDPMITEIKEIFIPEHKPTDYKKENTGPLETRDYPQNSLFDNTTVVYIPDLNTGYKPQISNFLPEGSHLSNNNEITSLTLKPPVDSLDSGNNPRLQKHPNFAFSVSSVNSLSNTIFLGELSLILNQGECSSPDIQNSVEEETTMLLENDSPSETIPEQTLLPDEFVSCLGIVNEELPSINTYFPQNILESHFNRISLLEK
# T2: Nluc-IL23R fusion protein (human, UniProt Q5VWK5 22-629)
# T2 construct: range 22-629; expressed with a secretion signal in HEK293 cells; used as crude membrane preparation; also called hIL-23R; human IL-23R; not shown: Nanoluc protein from the expression plasmid N1371 (Promega), N-terminal of IL-23R
# T2 sequence (looked up): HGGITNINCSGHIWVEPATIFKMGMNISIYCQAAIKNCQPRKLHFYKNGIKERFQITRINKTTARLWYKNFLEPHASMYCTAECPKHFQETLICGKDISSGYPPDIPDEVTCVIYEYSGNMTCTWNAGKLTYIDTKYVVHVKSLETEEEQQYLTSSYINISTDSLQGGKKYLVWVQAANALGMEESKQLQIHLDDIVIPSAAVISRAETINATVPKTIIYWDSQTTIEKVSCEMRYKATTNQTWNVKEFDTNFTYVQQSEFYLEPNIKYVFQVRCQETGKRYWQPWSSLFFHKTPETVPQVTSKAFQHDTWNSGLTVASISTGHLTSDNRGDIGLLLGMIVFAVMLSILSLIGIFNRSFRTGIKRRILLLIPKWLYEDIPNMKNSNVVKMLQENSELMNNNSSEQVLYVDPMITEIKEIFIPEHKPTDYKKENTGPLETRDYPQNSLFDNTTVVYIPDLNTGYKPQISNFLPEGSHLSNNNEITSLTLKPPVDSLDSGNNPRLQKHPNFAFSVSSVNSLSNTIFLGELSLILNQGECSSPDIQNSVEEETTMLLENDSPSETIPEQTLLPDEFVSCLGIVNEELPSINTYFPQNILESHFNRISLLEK
# B1: Compound 15 (peptide)
# peptide: [4‑Aminomethyl‑phenylacetyl]SEWQ[Dab][AEF][2Nal][αMeL]E[Iso‑Dab][αMeAla(3-pyridyl)]-NH2
# modifications: lactam N-10, 3-6; reading uncertain; also: iso-Dab11 joined via side-chain amine
# B2: Compound 20 (peptide)
# peptide: [4‑Aminomethyl‑phenylacetyl]AEWQ[Dab][AEF][2Nal][αMeL]E[Dab][3Pal]-NHMe
# modifications: lactam N-10, 3-6
# SMILES: CNC(=O)[C@H](Cc1cccnc1)NC(=O)[C@H](CCN)NC(=O)[C@@H]1CCC(=O)NCc2ccc(cc2)CC(=O)N[C@@H](C)C(=O)N[C@H]2CCC(=O)NCC[C@H](NC(=O)[C@H](CCC(N)=O)NC(=O)[C@H](Cc3c[nH]c4ccccc34)NC2=O)C(=O)N[C@@H](Cc2ccc(OCCN)cc2)C(=O)N[C@@H](Cc2ccc3ccccc3c2)C(=O)N[C@@](C)(CC(C)C)C(=O)N1
# B3: I4 (isomer 3) (peptide)
# peptide: H-ECWLCYYRNCNCM-NH2
# modifications: linker 5-10, 2-12 via 1,3‑dithio‑propan‑2‑one
# notes: compound from Heinis et al., 2020, synthesised for comparison
# Tests used:
# [1] = system: porcine pepsin (P7125, Sigma Aldrich); test: SGF: sodium chloride, HCl, pH 1.2, with porcine pepsin (3.2 g/L); settings: 37 °C, up to 4 hours
# [2] = system: porcine pancreatin (P1625, Sigma Aldrich); test: SIF: monobasic potassium phosphate, pH 6.8, with porcine pancreatin (10 g/L); settings: 37 °C, up to 4 hours
# [3] = target: T1, human IL-23R endogenously expressed on …; test: cell-based or functional assay
# [4] = target: T2, Nluc-IL23R fusion protein; test: BRET competition vs TAMRA-labelled peptide, Nluc-IL23R membranes
# [5] = target: T2, Nluc-IL23R fusion protein; test: as above; remark: listed apart in the source
not cleaved [1],not cleaved [2],also measured,Molecule
98% remaining after 4 h,92% remaining after 4 h,–,[4-Aminomethyl-phenylacetyl](1c)*AE(2c)WQ[Dab](2c)[7-AzaTrp][2-Nal][Aib]E(1c)[Dab][3-(3-Pyridyl)-Ala]
–,92% remaining after 4 h,–,[4-Aminomethyl-phenylacetyl](1c)*AE(2c)WQ[Dab](2c)[7-F-Trp][2-Nal][Aib]E(1c)[Dab][3-(3-Pyridyl)-Ala]
103% remaining after 4 h,90% remaining after 4 h,–,[4-Aminomethyl-phenylacetyl](1c)*AE(2c)WQ[Dab](2c)[Y(2-aminoethoxy)][2-Nal][2-Me-Leu]E(1c)[Dab][3-(3-Pyridyl)-Ala]-[NHMe]
102% remaining after 4 h,95% remaining after 4 h,–,[4-Aminomethyl-phenylacetyl](1c)*AE(2c)WQ[Dab](2c)[hPhe][2-Nal][Aib]E(1c)[Dab][3-(3-Pyridyl)-Ala]
104% remaining after 4 h,109% remaining after 4 h,–,[4-Aminomethyl-phenylacetyl](1c)*SE(2c)WQ[Dab](2c)[Y(2-aminoethoxy)][2-Nal][2-Me-Leu]E(1c)[Dab][2-Me-3-(3-Pyridyl)-Ala]-[NH2]
90% remaining after 4 h,–,"cleaved bond [2]: Dab12-3Pal13, major",[4-Aminomethyl-phenylacetyl](1c)*SE(2c)WQ[Dab](2c)[Y(2-aminoethoxy)][2-Nal][2-Me-Leu]E(1c)[Dab][3-(3-Pyridyl)-Ala]-[NH2]
–,105% remaining after 4 h,–,[4-Aminomethyl-phenylacetyl](1c)*SE(2c)WQ[Dab](2c)[Y(2-aminoethoxy)][2-Nal][2-Me-Leu]E(1c)[Dab][3-(3-Pyridyl)-Ala]-[NHMe]
95% remaining after 4 h,105% remaining after 4 h,–,[4-Aminomethyl-phenylacetyl](1c)*SE(2c)WQ[Dab](2c)[Y(2-aminoethoxy)][2-Nal][2-Me-Leu]E(1c)[Dab][3-(3-Pyridyl)-Ala][Sar]-[NH2]
97% remaining after 4 h,102% remaining after 4 h,–,[4-Aminomethyl-phenylacetyl](1c)*SE(2c)WQ[Dab](2c)[Y(2-aminoethoxy)][2-Nal][2-Me-Leu]E(1c)[Dab][3-(3-Pyridyl)-Ala][beta-hLeu]-[NH2]
94% remaining after 4 h,96% remaining after 4 h,–,[4-Aminomethyl-phenylacetyl](1c)*SE(2c)WQ[Dab](2c)[Y(2-aminoethoxy)][2-Nal][2-Me-Leu]E(1c)[THP][3-(3-Pyridyl)-Ala]
99% remaining after 4 h,91% remaining after 4 h,–,[4-Aminomethyl-phenylacetyl](1c)*SE(2c)W[Cit][Dab](2c)[Y(2-aminoethoxy)][2-Nal][2-Me-Leu]E(1c)[Dab][3-(3-Pyridyl)-Ala]
–,91% remaining after 4 h,–,[4-Aminomethyl-phenylacetyl](1c)*SE(2c)W[Dab(Ac)][Dab](2c)[Y(2-aminoethoxy)][2-Nal][2-Me-Leu]E(1c)[Dab][3-(3-Pyridyl)-Ala]
110% remaining after 4 h,110% remaining after 4 h,–,[4-Aminomethyl-phenylacetyl](1c)*SE(2c)W[Orn][Dab](2c)[Y(2-aminoethoxy)][2-Nal][2-Me-Leu]E(1c)[Dab][3-(3-Pyridyl)-Ala]
–,94% remaining after 4 h,–,[4-Aminomethyl-phenylacetyl](1c)*SE(2c)W[Q(2Me)][Dab](2c)[Y(2-aminoethoxy)][2-Nal][2-Me-Leu]E(1c)[Dab][3-(3-Pyridyl)-Ala]
90% remaining after 4 h,92% remaining after 4 h,–,[4-Aminomethyl-phenylacetyl](1c)*SE(2c)W[Q(Me)][Dab](2c)[Y(2-aminoethoxy)][2-Nal][2-Me-Leu]E(1c)[Dab][3-(3-Pyridyl)-Ala]
–,–,hIL-23 (pSTAT3) antagonist % inhibition [3]: 97%; hIL-23 (pSTAT3) antagonist IC50 [3]: 12 nM; % displacement (hIL-23R binding) [4]: 96%,B1
–,–,hIL-23 (pSTAT3) antagonist % inhibition [3]: 98%; hIL-23 (pSTAT3) antagonist IC50 [3]: 42 nM; % displacement (hIL-23R binding) [4]: 105%,"[4‑Aminomethyl‑phenylacetyl]SEW[Q(pyrrolidin)″][Dab][AEF][2Nal][αMeL]E[Dab]-NH2 (lactam N-10, 3-6) [Ref 146]"
–,–,hIL-23 (pSTAT3) antagonist % inhibition [3]: 101%; hIL-23 (pSTAT3) antagonist IC50 [3]: 26 pM; % displacement (hIL-23R binding) [4]: 97%,B2
–,–,hIL-23 (pSTAT3) antagonist % inhibition [3]: 23%; % displacement (hIL-23R binding) [5]: 84%,B3
–,–,hIL-23 (pSTAT3) antagonist % inhibition [3]: 99%; hIL-23 (pSTAT3) antagonist IC50 [3]: 7.2 nM; % displacement (hIL-23R binding) [4]: 102%; IC50 [4]: 0.11 nM,"[4‑Aminomethyl‑phenylacetyl]SEWQ[Dab][AEF][2Nal][αMeL]E[Dab][H(Me)]-NH2 (lactam N-10, 3-6) [Compound 14]"
